Results from patent US20220288004A1, “TREATMENT AND PREVENTION OF AGING RELATED-DISEASE AND/OR AGING BY THE INHIBITION OF SPHINGOLIPIDS” (ECOLE POLYTECHNIQUE FEDERALE DE LAUSANNE (EPFL), priority 2019, published 2022).
Entries after “also recorded” stand apart in the source; their conditions may differ.

Legend:
[1] = test system: skeletal muscle of aged mice; test: Proteostasis (A11 staining) in skeletal muscle of aged mice; format: in vivo, mouse
Description: FIG. 17. […] Values are expressed as mean±s.e.m. *P≤0.05. Differences between two groups were assessed using Student's two-tailed t-tests (error bars: 95% confidence intervals).

[2] = test system: human primary myoblasts from IBM donors; test: Proteostat staining of IBM patient myoblasts; format: cell-based; settings: 30 μM MYR for 24 h
Description: FIG. 16. Quantitative Proteostat signal normalized over the number of cells in human primary myoblasts from IBM donors (above) and APPSwe-expressing C2C12 myoblasts (below) decreases after treatment with 30 μM MYR for 24 h. Values are expressed as mean±s.e.m. ***P:0.001; ****P:0.0001. Differences between two groups were assessed using Student's two-tailed t-tests (error bars: 95% confidence intervals).
Cell lines from IBM patients featuring impaired proteostasis were obtained. This was validated using Proteostat staining which targets general disruption in proteostasis.

[3] = test system: sphingolipid de novo synthesis pathway; test: Measurement of sphingolipids in tissues of aged mice treated with myriocin; format: in vivo, mouse
Description: To examine whether a causal relationship could underlie the correlation between SphPC1 and muscle mass and function, it was tested whether inhibition of sphingolipid de novo biosynthesis pathway could protect against age-related muscle dysfunction. Aged (18-month-old) C57Bl/6JRj mice were treated for 5 months on chow diet with myriocin, a specific inhibitor of SPT, the first and rate-limiting enzyme of the sphingolipid de novo synthesis pathway, and whose expression in skeletal muscle was negatively correlated with muscular fitness in BXDs.
Animals. Young (2-month-old) and aged (18-month-old) C57Bl/6JRj mice were purchased from Janvier Labs. EchoMRI measuring the fat and lean body mass, were measured before and after the treatment. The dose of myriocin was 0.4 mg/kg/3 times a week. Myriocin (Enzo Life Sciences, Farmingdale, N.Y.) was first dissolved in DMSO which was then mixed with PBS so that each mouse received 1.5 μL DMSO per injection. Animals were fed on a standard chow diet. All animals were housed in micro-isolator cages in a room illuminated from 7:00 AM to 7:00 PM with ad libitum access to diet and water. All the animal experiments are authorized by animal license 2890.1 and 3341 in Canton of Vaud, Switzerland.
Measurement of sphingolipids. Plasma (100 μL) and weighed tissue samples (20-60 mg) were transferred to 2 ml Safe-Lock PP-tubes, and extracted. In brief, samples were homogenized using two 6 mm steal beads on a Mixer Mill (Retsch, Haan, GER; 2×10 sec, frequency 30/s) in 700 μL MTBE/MeOH (3/1, v/v) containing 500 μmol butylated hydroxytoluene, 1% acetic acid, and 200 μmol of internal standards (IS, d18:1/17:0 ceramide, d18:1/17:0 sphingomyelin, Avanti Polar Lipids, Alabaster, Ala., USA) per sample. Total lipid extraction was performed under constant shaking for 30 min at RT. After addition of 140 μL dH2O and further incubation for 30 min on RT, samples were centrifuged at 1,000×g for 15 min to establish phase separation. 500 μL of the upper, organic phase were collected and dried under a stream of nitrogen. Lipids were resolved in 700 μL 2-propanol/methanol/water (7/2.5/1, v/v/v) for UPLC-MS analysis. Remaining tissues were dried, solubilized in NaOH (0.3 N) at 65° C. for 4 h and the protein content was determined using Pierce™ BCA reagent (Thermo Fisher Scientific, Waltham, Mass., USA) and BSA as standard.
Chromatographic separation was modified after Knittelfelder et al. using an ACQUITY-UPLC system (Waters Corporation), equipped with a Luna omega C18 column (2.1×50 mm, 1.6 μm; Phenomenex) starting a 20 min linear gradient with 80% solvent A (MeOH/H2O, 1/1, v/v; 10 mM ammonium acetate, 0.1% formic acid, 8 μM phosphoric acid). The column compartment was kept on 50° C. A EVOQ Elite™ triple quadrupole mass spectrometer (Bruker) equipped with an ESI source was used for detection of lipids in positive ionization mode. Lipid species were analyzed by selected reaction monitoring (ceramide, [M+H]+ to m/z 264.3, 22 eV, 60 ms; sphingomyelin, [M+H]+ to m/z 184.1, 20 eV, 40 ms; resolution 0.7 Q1/Q3). Data acquisition was done by MS Workstation (Bruker). Data were normalized for recovery, extraction-, and ionization efficacy by calculating analyte/IS ratios (AU) and expressed as AU/g tissue or AU/mL plasma.
Measurement of deoxysphingolipids. […] An aliquot (50 μL) of homogenate was dried under air and resuspended in RIPA buffer for protein quantification using BCA assay (BCA Protein Assay, Lambda, Biotech Inc., US). […]

[4] = test system: freshly isolated MuSCs from aged C57BL/6JRj mice; test: Ex vivo analysis of MuSCs cultured in myriocin containing medium; format: cell-based, mouse
Description: Ex vivo analysis of MuSCs. MuSCs were isolated as described above, and seeded in 96- or 48-well plates. The cells were incubated in 30 μM myriocin containing medium (Ham's F-10 nutrient mixture, FBS 20%, basic fibroblast growth factor 2.5 ng/mL, penicillin 100 U/mL, streptomycin 100 μg/mL) for 72 hours. PFA 4% was applied for 15 min, the cells were washed three times for 10 min with PBS, and were blocked in 2% BSA in PBS. The cells were then incubated in primary antibodies MYOD (1:50, LabForce) and MYOG (1:50, Santa Cruz) overnight at 4° C. Secondary antibodies were coupled with Alexa-488 or Alexa-568 fluorochromes (Life Technology) and mounted with Dako Mounting Medium. Leica DMI 4000 microscope was used to image the cells. Quantification of the MYOD+ and MYOG+ cell number was based on more than 500 cells per condition.

[5] = quadriceps of aged myriocin treated mice

CCCCCCC(=O)CCCCCCC=CCC(O)C(O)C(N)(CO)C(=O)O (stereo not drawn) [myriocin, 2-Amino-3,4-dihydroxy-2-(hydroxymethyl)-14-oxoicos-6-enoic acid]
proteostasis in skeletal muscle ([1]; aged mice treated with myriocin): improves proteostasis; also recorded: promoted proteostasis
amyloid beta aggregates (A11 staining) ([1]; skeletal muscle of aged mice treated with myriocin): cleared amyloid beta aggregates
Proteostat signal normalized over the number of cells (protein aggregates) [2]: clearing protein aggregates
Proteostat signal normalized over the number of cells (protein aggregates) ([2]; listed as MYR): decreases
total ceramide contents of skeletal muscle ([3]; aged (18-month-old) C57Bl/6JRj mice, myriocin 0.4 mg/kg i.p. 3 times per week, 5 months, vs DMSO): reduced
skeletal muscle deoxysphingolipid contents ([3]; aged mice, myriocin 0.4 mg/kg i.p. 3 times per week, 5 months, smaller effect than on canonical sphingolipids): reduced
sphinganine (SA) level in skeletal muscle [3, 5]: lower levels
sphingosine (SO) level in skeletal muscle [3, 5]: lower levels
individual ceramide species in skeletal muscle ([3]; quadriceps, aged mice, myriocin 0.4 mg/kg i.p. 3 times per week, 5 months): reduced
MYOD protein level ([4]; 30 μM myriocin, 72 h, vs DMSO): elevated
MYOG protein level ([4]; 30 μM myriocin, 72 h, vs DMSO): elevated
Ki67+ MuSC count ([4]; MuSCs from untreated aged mice, 72 h in myriocin containing medium vs DMSO): higher
